Test [1] is described as follows: Inhibition of Lipoxygenase (unknown origin). Further details: species or system Homo sapiens.
In test [2] the test system is Rattus norvegicus. The test is described as follows: Anti-inflammatory activity against serotonin-induced paw edema in Sprague-Dawley rat assessed as inhibition of paw edema at 10 mg/kg, po measured after 5 hrs relative to control. Further details: scale not given: the % may be the effect or the level left. The test is classed as functional.
Test [3] concerns Splenocyte. Nature of the test: Immunomodulatory activity in mouse splenocytes assessed as maximum effect in CD3+ T cell production at 4 microg/ml incubated for 24 hrs by flow cytometry relative to control. The test is classed as functional. The conditions noted are these: dose 4 µg/ml. Background: Flow cytometry measures light scatter and fluorescence of single cells or particles in a stream.

The test system of test [4] is Splenocyte. Nature of the test: Immunomodulatory activity in mouse splenocytes assessed as maximum effect in CD4+ T cell production at 4 microg/ml incubated for 24 hrs by flow cytometry relative to control. Conditions: dose 4 µg/ml. In kind it is functional.
Another test relates to Mus musculus. The test is described as follows: Antidiabetic activity in six hour fasted type 2 diabetic C57BL/6 db/db mouse assessed as decrease in fasting blood glucose level at 250 mg/kg,po for 4 weeks by Glucose analyzer. In kind it is functional. Details: scale not given: the % may be the effect or the level left.
Another test has as its system Leishmania major. Nature of the test: Antileishmanial activity against Leishmania major MHOM/IL/80/Friendlin assessed as reduction in parasite growth incubated for 24 hrs by resazurin dye based analysis. The test is classed as functional, organism-based. (In general: The colour change of resazurin is a common sign of viable cells or microbes.)
A further test deals with Alpha-synuclein (Homo sapiens, UniProt P37840). Nature of the test: Inhibition of wild type full length recombinant alpha-synuclein (unknown origin) expressed in Escherichia coli by spectrophotometric analysis.
The species named for test [5] is Rattus norvegicus. The test is described as follows: Antioxidant activity in Vitamin E deficient rat model assessed as onset of ascorbate/Fe2+/ADP complex-initiated peroxidation delayed time by measuring onset of peroxidation (lag phase) at 0.25 mM by Thiobarbituric acid substance assay. The test is classed as functional.
Test [6] is filed under the species Rattus norvegicus. The test is described as follows: Antioxidant activity in Vitamin E deficient rat model assessed as onset of ascorbate/Fe2+/ADP complex-initiated peroxidation delayed time by measuring onset of peroxidation (lag phase) at 0.5 mM by Thiobarbituric acid substance assay. The test is classed as functional.

Values after ≈ are worked out from the molar mass of the structure shown.

Consider `COc1cc(/C=C/C(=O)CC(=O)/C=C/c2ccc(O)c(OC)c2)ccc1O` [CURCUMIN], for which half-maximal inhibition in test [1] (IC50) required 45.3 µM.

As for `COc1ccc2c(c1)c(CC(=O)O)c(C)n2C(=O)c1ccc(Cl)cc1` [INDOMETHACIN], the Activity in the test on Rattus norvegicus [2] stood at 34.2%.

On to `O=c1c(O)c(-c2ccc(O)c(O)c2)oc2cc(O)ccc12` [FISETIN], for which the Activity turned out to be 39.62% with Splenocyte [3] and 28.92% in the test with Splenocyte [4].

With `O=C(/C=C/c1ccc(O)c(O)c1)O[C@@H]1C[C@](O)(C(=O)O)C[C@@H](O)[C@H]1O` [CHLOROGENIC ACID], the Activity in the test on Mus musculus is recorded as 31%.

Take `O=C(O)c1cc(O)c(O)c(O)c1` [GALLIC ACID]: in the test on Leishmania major, the EC50 (as a rule, the concentration needed to bring the measured effect to its halfway point) is 5 µg/mL (≈ 29.4 µM).

Take `COc1cc(/C=C/C(=O)O)ccc1O` [FERULATE]: on Alpha-synuclein, the IC50 (commonly the concentration that inhibits the measured activity by half) came out at 13 µM.

Turning to `O=c1c(O)c(-c2cc(O)c(O)c(O)c2)oc2cc(O)cc(O)c12` [MYRICETIN], the Time in the test listed under Rattus norvegicus [5] came to 12.6 min; in the test filed under Rattus norvegicus [6], 14.3 min.

Take `O=c1oc2c(O)c(O)cc3c(=O)oc4c(O)c(O)cc1c4c23` [ELLAGIC ACID]: in the test on Leishmania major, the EC50 turned out to be 0.9 µg/mL (≈ 2.98 µM).

For the origin of these results see ChEMBL document CHEMBL5528024, “Comprehensive and critical view on the anti-inflammatory and immunomodulatory role of natural phenolic antioxidants” (Eur J Med Chem, 2024).
